What was measured:
[1] = test system: GIST T1 cells; experiment: GIST T1 Cell Proliferation Assay; type: cell-based; details: Homo sapiens, GISTT1, 72 h, 68 hours + 4 hours resazurin
[2] = target: T1, c-KIT T670I kinase (Homo sapiens, UniProt P10721, T670I); experiment: c-KIT T670I kinase assay; type: biochemical; details: enzymatic assay
T1 construct: The construct contains residues T544-V976 of cKit; GST (N); TEV cleavage site (internal); purchased deCODE Biostructures
How it was run: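 Enzyme: GST-fused, N-terminally tagged cKit bearing T670I, with TEV cleavage site. Reaction started by mixing compound dilutions with reaction mix; activity read continuously over 5 h at 30 °C as loss of 340 nm absorbance from NADH consumption.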

[3] = target: T2, c-KIT VVDV kinase (Homo sapiens, UniProt P10721, D816V/DEL559-560); experiment: cKIT-VVDV kinase Assay; type: biochemical; details: enzymatic assay; V559+V560 deletions and D816V mutation
T2 construct: This construct contains residues T544-V976 of cKit; GST (N); TEV cleavage site (internal); purchased deCODE Biostructures
Experimental: In this assay, the oxidation of NADH (measured by decrease in absorbance at 340 nm) was continuously monitored spectrophotometrically. […] The inhibition reaction was started by mixing serial diluted test compound with the above reaction mixture. The absorption at 340 nm was monitored continuously for 5 hours at 30 °C on Synergy 2 plate reader (BioTech). […] The protein construct was prepared by deCODE Biostructures using procedures known in the art. […] This construct is identical to Seq ID no.

[4] = target: T3, c-KIT D816V kinase (Homo sapiens, UniProt P10721, D816V); experiment: c-KIT D816V kinase Assay; type: biochemical; details: enzymatic assay, ATP 200 uM
T3 construct: residues T544-V976 with N-terminal GST fusion; purchased deCODE Biostructures
How it was run: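 Coupled assay in which NADH oxidation was tracked as decreasing absorbance at 340 nm, continuously for 5 hours at 30 °C after adding serially diluted compound. Enzyme: cKit residues T544-V976 with N-terminal tag, GST fusion and TEV cleavage site.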

T1 sequence (P10721 544-976 T670I): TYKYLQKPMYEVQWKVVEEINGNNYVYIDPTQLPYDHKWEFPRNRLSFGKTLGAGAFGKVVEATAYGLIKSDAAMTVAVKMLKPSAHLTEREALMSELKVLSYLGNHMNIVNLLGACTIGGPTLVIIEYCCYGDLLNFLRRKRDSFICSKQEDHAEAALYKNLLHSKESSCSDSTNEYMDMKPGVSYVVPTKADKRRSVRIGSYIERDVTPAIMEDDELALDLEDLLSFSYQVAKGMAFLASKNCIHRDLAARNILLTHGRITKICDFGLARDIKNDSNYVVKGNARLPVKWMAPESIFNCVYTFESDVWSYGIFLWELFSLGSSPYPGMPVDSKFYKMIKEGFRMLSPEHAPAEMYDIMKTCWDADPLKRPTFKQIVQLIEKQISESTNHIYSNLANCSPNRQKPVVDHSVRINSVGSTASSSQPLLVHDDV
T2 sequence (P10721 with tags, fused parts or gaps DEL559-560/D816V): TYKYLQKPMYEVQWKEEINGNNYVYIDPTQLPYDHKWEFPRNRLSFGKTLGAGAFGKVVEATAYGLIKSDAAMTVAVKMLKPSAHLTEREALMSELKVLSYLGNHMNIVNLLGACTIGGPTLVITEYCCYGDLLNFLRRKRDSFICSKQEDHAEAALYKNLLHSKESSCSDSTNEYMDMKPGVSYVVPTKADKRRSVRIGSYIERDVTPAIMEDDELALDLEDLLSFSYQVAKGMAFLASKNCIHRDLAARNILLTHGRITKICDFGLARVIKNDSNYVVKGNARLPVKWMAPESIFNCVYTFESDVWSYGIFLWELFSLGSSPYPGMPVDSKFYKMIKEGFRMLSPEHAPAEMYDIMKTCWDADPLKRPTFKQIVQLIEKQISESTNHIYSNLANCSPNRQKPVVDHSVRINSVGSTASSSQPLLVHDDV
T3 sequence (P10721 544-976 D816V): as the sequence (P10721 544-976 T670I) above, with I127T, D273V counted along it

Row | SMILES | IC50 [2] [nM] | IC50 [3] [nM] | IC50 [4] [nM] | IC50 [1] [nM]
1 | CCn1c(=O)c(-c2cc(NC(=O)Nc3cccc(F)c3F)c(F)cc2Cl)cc2cnc(NC)cc21 [Example 4, 1-(4-chloro-5-(1-ethyl-7-(methylamino)-2-oxo-1,2-dihydro-1,6-naphthyridin-3-yl)-2-fluorophenyl)-3-(2,3-difluorophenyl)urea] | 10 to 100 | < 10 | 10 to 100 | < 10
2 | CCn1c(=O)c(-c2cc(NC(=O)Nc3cc(F)ccc3F)c(F)cc2C)cc2cnc(NC)cc21 [Example 61, 1-(2,5-difluorophenyl)-3-(5-(1-ethyl-7-(methylamino)-2-oxo-1,2-dihydro-1,6-naphthyridin-3-yl)-2-fluoro-4-methylphenyl)urea] | < 10 | < 10 | 10 to 100 | < 10
3 | CNc1cc2c(cn1)cc(-c1cc(NC(=O)Nc3cccc(F)c3)c(F)cc1Cl)c(=O)n2C(C)C [Example 77, 1-(4-chloro-2-fluoro-5-(1-isopropyl-7-(methylamino)-2-oxo-1,2-dihydro-1,6-naphthyridin-3-yl)phenyl)-3-(3-fluorophenyl)urea] | 100 to 1000 |  | < 10 | < 10
4 | CCn1c(=O)c(-c2cc(NC(=O)Nc3cc(F)cc(F)c3)c(F)cc2Cl)cc2cnc(NC(C)=O)cc21 [Example 67, N-(3-(2-chloro-5-(3-(3,5-difluorophenyl)ureido)-4-fluorophenyl)-1-ethyl-2-oxo-1,2-dihydro-1,6-naphthyridin-7-yl)acetamide] | < 10 |  | < 10 | < 10
5 | CCn1c(=O)c(-c2cc(NC(=O)Nc3ccccc3F)c(F)cc2Cl)cc2cnc(NC)cc21 [Example 25, 1-[4-chloro-5-(1-ethyl-7-methylamino-2-oxo-1,2-dihydro-[1,6]naphthyridin-3-yl)-2-fluoro-phenyl]-3-(2-fluoro-phenyl)-urea] | < 10 | < 10 | 10 to 100 | < 10
6 | CCn1c(=O)c(-c2cc(NC(=O)Nc3cc(F)cc(F)c3)c(F)cc2Cl)cc2cnc(NC)cc21 [Example 55, 1-(4-chloro-5-(1-ethyl-7-(methylamino)-2-oxo-1,2-dihydro-1,6-naphthyridin-3-yl)-2-fluorophenyl)-3-(3,5-difluorophenyl)urea] | 10 to 100 | 10 to 100 | 10 to 100 | < 10
7 | CCn1c(=O)c(-c2cc(NC(=O)Nc3ccccc3)c(F)cc2Cl)cc2cnc(NC(=O)N3CC(O)C3)cc21 [Example 81, N-(3-(2-chloro-4-fluoro-5-(3-phenylureido)phenyl)-1-ethyl-2-oxo-1,2-dihydro-1,6-naphthyridin-7-yl)-3-hydroxyazetidine-1-carboxamide] | 10 to 100 |  | 10 to 100 | < 10
8 | CCn1c(=O)c(-c2cc(NC(=O)Nc3ccccc3)c(F)cc2C)cc2cnc(NC(=O)N(C)C)cc21 [Example 101, 3-(1-ethyl-3-(4-fluoro-2-methyl-5-(3-phenylureido)phenyl)-2-oxo-1,2-dihydro-1,6-naphthyridin-7-yl)-1,1-dimethylurea] | 10 to 100 |  | 10 to 100 | < 10

More lines, main results first:

Row | IC50 [2] [nM] | IC50 [3] [nM] | IC50 [4] [nM] | SMILES | IC50 [1] [nM]
9 | 10 to 100 | 10 to 100 | 10 to 100 | CCn1c(=O)c(-c2cc(NC(=O)Nc3ccccc3)c(F)cc2Cl)cc2cnc(NCCOC)cc21 [Example 27, 1-(4-chloro-5-(1-ethyl-7-(2-methoxyethylamino)-2-oxo-1,2-dihydro-1,6-naphthyridin-3-yl)-2-fluorophenyl)-3-phenylurea] | 
10 | 10 to 100 |  | 100 to 1000 | CCn1c(=O)c(-c2cc(NC(=O)Nc3ccc(F)c(CN4CCN(C)CC4)c3)c(F)cc2Cl)cc2cnc(NC)cc21 [Example 87, 1-(4-chloro-5-(1-ethyl-7-(methylamino)-2-oxo-1,2-dihydro-1,6-naphthyridin-3-yl)-2-fluorophenyl)-3-(4-fluoro-3-((4-methylpiperazin-1-yl)methyl)phenyl)urea] | 10 to 100
11 | 10 to 100 |  | 10 to 100 | CCn1c(=O)c(-c2cc(NC(=O)Nc3cccc(F)c3)c(F)cc2C)cc2cnc(N)cc21 [Example 58, 1-(5-(7-amino-1-ethyl-2-oxo-1,2-dihydro-1,6-naphthyridin-3-yl)-2-fluoro-4-methylphenyl)-3-(3-fluorophenyl)urea] | < 10
12 | > 1000 | 100 to 1000 | 100 to 1000 | CCn1c(=O)c(-c2cc(NC(=O)Nc3ccccc3)c(F)cc2Br)cc2cnc(NCCOC)cc21 [Example 51, 1-(4-bromo-5-(1-ethyl-7-(2-methoxyethylamino)-2-oxo-1,2-dihydro-1,6-naphthyridin-3-yl)-2-fluorophenyl)-3-phenylurea] | < 10
13 | 10 to 100 |  | 10 to 100 | CCn1c(=O)c(-c2cc(NC(=O)Nc3ccccc3)c(F)cc2Cl)cc2cnc(NC(=O)N3CC(N(C)C)C3)cc21 [Example 102, N-(3-(2-chloro-4-fluoro-5-(3-phenylureido)phenyl)-1-ethyl-2-oxo-1,2-dihydro-1,6-naphthyridin-7-yl)-3-(dimethylamino)azetidine-1-carboxamide] | < 10
14 | 100 to 1000 | 10 to 100 | 10 to 100 | CCn1c(=O)c(-c2cc(NC(=O)Nc3cc(F)cc(F)c3)c(F)cc2C)cc2cnc(NC)cc21 [Example 60, 1-(3,5-difluorophenyl)-3-(5-(1-ethyl-7-(methylamino)-2-oxo-1,2-dihydro-1,6-naphthyridin-3-yl)-2-fluoro-4-methylphenyl)urea] | 10 to 100
15 | 10 to 100 | < 10 | < 10 | CCn1c(=O)c(-c2cc(NC(=O)Nc3ccccc3)c(F)cc2Cl)cc2cnc(NC(=O)OC)cc21 [Example 73, methyl (3-(2-chloro-4-fluoro-5-(3-phenylureido)phenyl)-1-ethyl-2-oxo-1,2-dihydro-1,6-naphthyridin-7-yl)carbamate] | 10 to 100

Source: patent publication EP3722296B1, “DIHYDRONAPHTHYRIDINES AND RELATED COMPOUNDS USEFUL AS KINASE INHIBITORS FOR THE TREATMENT OF PROLIFERATIVE DISEASES” (Deciphera Pharmaceuticals, LLC, priority 2012, dated 2013)
